PMC539285, “Anti-Plasmodium activity of ceramide analogs” (Malaria Journal, 2004)
Like-named read-outs stand apart in the source and are kept apart here.

Key:
[1] = tested on: chloroquine-resistant strain FcB1 of P. falciparum; test: Anti-Plasmodium activity, [3H]hypoxanthine microdilution on asynchronous cultures; type: cell-based, Plasmodium falciparum; details: for IC90 / IC50: Plasmodium falciparum; for IC90: 48 h, 90% growth inhibition, read-out: CI90 (the source's name)
Experimental: P. falciparum strains (FcB1/Colombia, K1/Thailand, F32/Tanzania, W2/Indochina) were maintained in continuous culture on human erythrocytes in RPMI medium containing 7% (v/v) heat-inactivated human serum under an atmosphere of 3% CO2, 6% O2, 91% N2, at 37°C, as described by Trager and Jensen. Parasite synchronization was performed successively by treatment with 5% (w/v) sorbitol and by concentration in gelatin solution as previously described.
Drug susceptibility assays were performed using a modification of the semi automated microdilution technique of Desjardins et al.. Stock solutions of test compounds were prepared in DMSO. Drug solutions were serially diluted twofold with 100 μl culture medium in 96-well plates. Asynchronous parasite cultures (100 μl, 1 % parasitemia and 1 % final hematocrite) were added to each well and incubated for 24 hours at 37°C prior to the addition of 0.5 μCi of [^3H] hypoxanthine (Amersham, France, 1 to 5 Ci.mmol/ml) per well. After a further incubation of 24 hour, plates were frozen and thawed. Cell lysates were then collected onto glass-filter papers and counted in a liquid scintillation spectrometer. The growth inhibition for each drug concentration was determined by comparison of the radioactivity incorporated in the treated culture with that in the control culture (having the same final % of DMSO) maintained on the same plate. The concentration causing 50% growth inhibition (IC50) and 90% growth (IC90) were obtained from the drug concentration-response curve and the results were expressed as the means ± the standard deviations determined from several independent experiments.

[2] = Cytotoxicity test upon human embryonic cells (MTT); type: cell-based; details: human, MRC-5 human diploid embryonic lung cells; MRC-5, five days, MTT; mean of three experiments
Experimental: (§1) A human diploid embryonic lung cell line (MRC-5, Bio-Whittaker 72211D) was used to assess the cytotoxic effects towards eukaryotic host cells. MRC-5 cells were seeded at 5,000 cells per well in 100 μl. After 24 hours, the cells were washed and two-fold dilutions of the drug were added in 200 μl standard culture medium (RPMI medium + 5% fetal calf serum) and maintained for five days under 5% CO2 atmosphere. The final DMSO concentration in the culture remained below 0.1%. Untreated cultures were included as controls. The cytotoxicity was determined using the colorimetric MTT assay according to the manufacturer's recommendations (Cell proliferation kit I, Roche Applied Science, France) and scored as a percentage of reduction in absorption at 540 nm of treated cultures versus untreated control cultures. […] The results were expressed as the mean ± the standard deviations determined from several independent experiments. The index of selectivity was defined as the ratio of the IC50 value on MRC-5 to that of P. falciparum.

human MRC-5 cells = test: Cytotoxicity test upon human embryonic cells (MTT); type: cell-based; details: for IC50: Homo sapiens, MRC5, 120 h, MRC-5, five days, MTT, mean of three experiments; for Index of selectivity: ratio of the IC50 value on MRC-5 cells to that on P. falciparum
Experimental: as §1

[3] = tested on: P. falciparum synchronized cultures; test: Parasite stage-specific inhibitory effects and reversibility (Giemsa-stained smears); type: cell-based, Plasmodium falciparum; details: trophozoite stage, 250 nM (data not shown)
Experimental: Synchronized cultures (1–2% parasitemia) at the ring stage (0–10 hours old parasites), the trophozoite stage (25–35 hours old parasites) and the schizonte stage (40–48 hours old parasites) were maintained in the presence of drug concentrations in the vicinity of IC50 values. Aliquots were removed at the indicated times, washed three times with culture medium and maintained in culture in the absence or in the presence of a given drug. […] Parasitaemias were determined by counting 3,000 cells for each sample. Controls consisted of parasites incubated with DMSO instead of drugs processed in the same way.
To investigate the cytostatic or cytotoxic effects of AD2646 on the parasite development, cultures at the ring stage (0–10 hours), the trophozoite stage (25–35 hours) and the schizonte stage (40–48 hours) were incubated with 30, 100 or 250 nM of AD2646 for 24.5 hours for the ring stage, for 11 hours for the trophozoite stage, and for 14 hours for the schizonte stage. Aliquots were then taken, washed and incubated in the absence or the presence of drug for a further 13 hours to 24 hours depending upon the parasite stage tested (see Figure 5). Parasitaemia and parasite stages were determined on Giemsa-stained smears at time of aliquot removal and after the subsequent incubation.

[4] = Figure 2, series A (amide linkage), strain FcB1
[5] = Figure 2, series A (amide linkage), strain FcB1, read-out: CI50 (the source's name)
[6] = Figure 3, series B, strain FcB1
[7] = Figure 3, series B (methylene or thiourea linkage), strain FcB1, read-out: CI50 (the source's name)
[8] = FCB1, Figure 4, selected derivatives, read-out: IC50

SMILES	IC90 [1, 4] [µM]	IC50 [1, 5] [µM]	IC90 [1, 6] [µM]	IC50 [1, 7] [µM]	further results
CCCCCCCC(=O)N[C@H](CO)[C@H](O)c1ccc([N+](=O)[O-])cc1 [AD2494]	70	13.1			
CCCCCCCCCCCCCCCC(=O)N[C@H](CO)[C@H](O)c1ccc([N+](=O)[O-])cc1 [AD2495]	20.3 ± 1.4	10.8 ± 2.3			
CCCC(=O)N[C@@H](CO)[C@@H](O)c1ccc([N+](=O)[O-])cc1 [AD2549]		> 100			
CCCCCCCC(=O)N[C@@H](CO)[C@@H](O)c1ccc([N+](=O)[O-])cc1 [AD2550]	> 100	64.1			
CCCCCCCCCCCC(=O)N[C@H](CO)[C@H](O)c1ccc([N+](=O)[O-])cc1 [AD2552]	36.3 ± 16.1	16.5 ± 6.5			
CCCCCCCCCCCCCC(=O)N[C@H](CO)[C@H](O)c1ccc([N+](=O)[O-])cc1 [AD2557]	37.8 ± 15.3	17.2 ± 5.5			
CCCCCCCCCCCCCCCCCC(=O)N[C@H](CO)[C@H](O)c1ccc([N+](=O)[O-])cc1 [AD2558]	> 50	34.3			
CCCCCCCCCCCCCC(=O)N[C@@H](CO)[C@@H](O)c1ccc([N+](=O)[O-])cc1 [AD2560]	36 ± 18.2	18.7 ± 6.5			
CCCC(=O)N[C@H](CO)[C@H](O)c1ccc([N+](=O)[O-])cc1 [AD2583]	67.4	26.8			
O=C(CCCO)N[C@H](CO)[C@H](O)c1ccc([N+](=O)[O-])cc1 [AD2589]		> 100			
CC(=O)N[C@H](CO)[C@H](O)c1ccc([N+](=O)[O-])cc1 [AD2590]		> 100			
CCCCCCCC(=O)Nc1ccc([C@@H](O)[C@@H](CO)NC(=O)CCC)cc1 [AD2603]	> 100	70.1			
CCCCCCCCCCCC(=O)Nc1ccc([C@@H](O)[C@@H](CO)NC(=O)CCC)cc1 [AD2604]	> 100	70			
CCCCCCCCCCCCCCCC(=O)Nc1ccc([C@@H](O)[C@@H](CO)NC(=O)CCC)cc1 [AD2605]		> 100			
CCCC(=O)N[C@H](CO)[C@H](O)c1ccc(NC(=O)CCC(=O)O)cc1 [AD2606]		> 100			
CCCC(=O)Nc1ccc([C@@H](O)[C@@H](CO)NC(=O)CCC)cc1 [AD2607]		> 100			
CCCCCCCCCCCCCCCCN[C@H](CO)[C@H](O)c1ccc([N+](=O)[O-])cc1 [AD2619]			0.073 ± 0.005	0.0428 ± 0.0085	IC90 at 5 days [2]: 42.3 µM; IC50 (human MRC-5 cells): 26.7 µM; Index of selectivity (human MRC-5 cells): 624
CCCCCCCCCCCCCCCC(=O)N[C@H](CO)[C@H](O)c1ccc(N)cc1 [AD2623]	81.3	40.4			
CCCCCCCCCCCCCCN[C@@H](CO)[C@@H](O)c1ccc([N+](=O)[O-])cc1 [AD2645]			0.104 ± 0.001	0.0379 ± 0.0021	IC90 at 5 days [2]: 10.3 µM; IC50 (human MRC-5 cells): 6.1 µM; Index of selectivity (human MRC-5 cells): 161
CCCCCCCCCCCC(=O)Nc1ccc([C@@H](O)[C@H](N)CO)cc1 [AD2648]	9.6	4.9			

SMILES	IC90 [1, 4] [µM]	IC50 [1, 5] [µM]	IC90 [1, 6] [µM]	IC50 [1, 7] [µM]	further results
CCCCCCNc1ccc([C@@H](O)[C@@H](CO)NCCCCCC)cc1 [AD2651]			0.135 ± 0.019	0.0857 ± 0.0232	parasite development, trophozoite stage [3]: complete inhibition of parasite development
CCCCCCCCNc1ccc([C@@H](O)[C@@H](CO)NCCCCCCCC)cc1 [AD2670]			0.069 ± 0.003	0.0337 ± 0.0037	parasite development, trophozoite stage [3]: complete inhibition of parasite development
CCCCCCCCCCCCCCN[C@H](CO)[C@H](O)c1ccc(N)cc1 [AD2672]			2.6 ± 0.65	1.7 ± 0.2	IC90 at 5 days [2]: 5.9 µM; IC50 (human MRC-5 cells): 3.7 µM; Index of selectivity (human MRC-5 cells): 2
CCCCCCCCCCCCCCNC(CO)Cc1ccccc1 (centres unmarked) [AD2729]					reduction of anti-Plasmodium activity by removal of the carbon 3 hydroxyl group ([1]; AD2729 compared with AD2730): 13.5 times; IC50 [1, 8]: 0.258 ± 0.0107 µM; IC90 at 5 days [2]: 9.8 µM; IC50 (human MRC-5 cells): 5.8 µM; Index of selectivity (human MRC-5 cells): 22
CCCCCCCCCCCCCCN[C@H](CO)[C@H](O)c1ccccc1 [AD2730]					IC50 [1, 8]: 0.0189 ± 0.0017 µM; IC90 at 5 days [2]: 9.9 µM; IC50 (human MRC-5 cells): 6.1 µM; Index of selectivity (human MRC-5 cells): 322
CCN[C@H](CO)[C@H](O)c1ccc([N+](=O)[O-])cc1 [AD-2212]				> 33	
CCNC(=S)N[C@H](CO)[C@H](O)c1ccc([N+](=O)[O-])cc1 [AD-2215]				> 50	
CCCCNC(=S)N[C@H](CO)[C@H](O)c1ccc([N+](=O)[O-])cc1 [AD-2216]			13.9 ± 7.1	1.13 ± 0.24	
CC(C)(C)NC(=S)N[C@H](CO)[C@H](O)c1ccc([N+](=O)[O-])cc1 [AD-2217]			0.958 ± 0.013	0.574 ± 0.05	
CCCCN[C@H](CO)[C@H](O)c1ccc([N+](=O)[O-])cc1 [AD-2493]			5.1 ± 0.15	0.78 ± 0.07	
CCCCCCCCCCCCCCCCCCCCN[C@H](CO)[C@H](O)c1ccc([N+](=O)[O-])cc1 [AD-2554]				> 200	
CCCCCCCCCCCCN[C@H](CO)[C@H](O)c1ccc([N+](=O)[O-])cc1 [AD-2617]			0.304 ± 0.007	0.0171 ± 0.0053	
CCCCCCCCCCCCNc1ccc([C@@H](O)[C@@H](CO)NCCCCCCCCCCCC)cc1 [AD-2653]			5.5	3.25	
CCCCNc1ccc([C@@H](O)[C@@H](CO)NCCCC)cc1 [AD-2664]			2.4 ± 0.7	1.3 ± 0.2	
CCCCCCCCCCCCCCN[C@H](CO)[C@H](O)c1ccc(NCC)cc1 [AD-2677]			2.7	1.48	
CCCCCCCCCCCCCCN[C@H](CO)[C@H](O)c1ccc(NC(C)=O)cc1 [AD-2678]			10.6	5.8	
CCCCCCCCCCCCCCN[C@H](CO)[C@H](O)c1ccc(NC(=O)CCCCC)cc1 [AD-2680]			5.5	3.3	
CCCCCCCCCCCCCCN[C@H](C)[C@H](O)c1ccccc1 [AD-2724]					IC50 [1, 8]: 0.0334 ± 0.0031 µM
CCN(CC)CCCC(C)Nc1ccnc2cc(Cl)ccc12 (centres unmarked) [chloroquine, reference compound]					IC50 ([1]; FCB1): 0.115 ± 0.025 µM
